What was measured:
[1] = Heat processing of compounds: pellet formation by heat molding; type: physicochemical; conditions: for Pellet formation?: heat molding, cylindrical mold ~1 mm in height x 1 mm in diameter; for Pellet formation by heat molding (result in words): heat molding 10° C. to 30° C. above thermal transition, pressed into cylindrical mold
Method: Compounds were formed into pellets by heat molding. Powders of Compound 1-7 and Compounds 9-12 were processed at a temperature from between about 10° C. to 30° C. above their thermal transitions (e.g., glass transition temperature (Tg) for amorphous powders or melting point (Tm) for crystalline powders) of the given compound (e.g., from about 70° C. (Compound 9) to about 220° C. (Compound 2)), and pressed into a cylindrical mold of ˜1 mm in height×1 mm in diameter. Light microscopy was used to capture images of the heat-formed pellets.
These pellets had the appropriate processing properties to be tested as articles for drug delivery applications.
Compounds 16, 22, and 23 were also tested for pellet formation using a similar method as compounds 1-7 and 9-12. […] The recovered form was soft and tacky and could not be easily handled.

[2] = Drug release from heat-molded pellets in phosphate buffered saline (PBS); type: physicochemical; conditions: heat-molded pellet, 37° C., agitation at 115 rpm, HPLC
Method: Drug release from heat-molded pellets of Compound 1 (FIG. 1A) was assessed in phosphate buffered saline (PBS). Heat-molded pellets (FIG. 1B) were placed in 20 ml glass vials and 2 ml of release buffer was added. Samples were incubated at 37° C. with constant agitation at 115 rpm. Release buffer was sampled and fully replaced with 2 ml of fresh buffer daily with the exception of days 5, 6, 12, 13, and 14 (FIG. 1C). Samples were analyzed by high performance liquid chromatography (HPLC) to quantify drug products (FIG. 1D). Cumulative release was calculated as a percentage of total mass of starting pellets and was plotted over time.
Drug release from heat-molded pellets of Compound 3-7 and Compound 9-12 were assessed in phosphate buffered saline (PBS). Heat-molded pellets were placed in 20 ml glass vials and 2 ml of release buffer was added. Samples were incubated at 37° C. with constant agitation at 115 rpm. Release buffer was sampled and fully replaced with 2 ml of fresh buffer on days 1, 3, 7, 10, and 14. Samples were analyzed by high performance liquid chromatography (HPLC) to quantify drug products. Cumulative release was calculated as a percentage of total mass of starting pellets and was plotted over time.

**Q.** For `C=CCN1CC[C@]23c4c5ccc(OC(=O)CCCCC(=O)Oc6ccc7c8c6O[C@H]6C(=O)CC[C@@]9(O)[C@@H](C7)N(CC=C)CC[C@]869)c4O[C@H]2C(=O)CC[C@@]3(O)[C@H]1C5` [Compound 1, bis((4R,4aS,7aR,12bS)-3-allyl-4a-hydroxy-7-oxo-2,3,4,4a,5,6,7,7a-octahydro-1H-4,12-methanobenzofuro[3,2-e]isoquinolin-9-yl) adipate], which “Pellet formation?” value [1] is on record?
**A.** ✓ (FIG. 1B)

**Q.** What about the “Release in phosphate buffered saline (PBS): near zero order for” value (“Release in phosphate buffered saline” for short) [2] of the same compound?
**A.** Near zero order for > 7 days

**Q.** With `O=C(CCCCC(=O)Oc1ccc2c3c1O[C@H]1C(=O)CC[C@@]4(O)[C@@H](C2)N(CC2CC2)CC[C@]314)Oc1ccc2c3c1O[C@H]1C(=O)CC[C@@]4(O)[C@@H](C2)N(CC2CC2)CC[C@]314` [Compound 2, bis((4R,4aS,7aR,12bS)-3-(cyclopropylmethyl)-4a-hydroxy-7-oxo-2,3,4,4a,5,6,7,7a-octahydro-1H-4,12-methanobenzofuro[3,2-e]isoquinolin-9-yl) adipate] as the compound, how does the “Pellet formation by heat molding (result in words)” value (shortened to “Pellet formation by heat molding”) [1] read?
**A.** didn't form a viscous liquid that could be pressed into a pellet

**Q.** Which “Pellet formation?” value [1] does the source give for `C=C1CC[C@@]2(O)[C@H]3Cc4ccc(OC(=O)CCCCC(=O)Oc5ccc6c7c5O[C@H]5C(=C)CC[C@@]8(O)[C@@H](C6)N(CC6CC6)CC[C@]758)c5c4[C@@]2(CCN3CC2CC2)[C@H]1O5` [Compound 3, bis((4R,4aS,7aS,12bS)-3-(cyclopropylmethyl)-4a-hydroxy-7-methylene-2,3,4,4a,5,6,7,7a-octohydro-1H-4,12-methanobenzofuro[3,2-e]isoquinolin-9-yl) adipate] here?
**A.** ✓ (FIG. 4B)

**Q.** And the “Release in phosphate buffered saline” value [2]?
**A.** Near zero order for > 7 days

**Q.** Which “Pellet formation?” value [1] does the source give for `C=CCN1CC[C@]23c4c5ccc(OC(=O)CCCCCCCCC(=O)Oc6ccc7c8c6O[C@H]6C(=O)CC[C@@]9(O)[C@@H](C7)N(CC=C)CC[C@]869)c4O[C@H]2C(=O)CC[C@@]3(O)[C@H]1C5` [Compound 4, bis((4R,4aS,7aR,12bS)-3-allyl-4a-hydroxy-7-oxo-2,3,4,4a,5,6,7,7a-octahydro-1H-4,12-methanobenzofuro[3,2-e]isoquinolin-9-yl) decanedioate] here?
**A.** ✓ (FIG. 5B)

**Q.** What about the “Release in phosphate buffered saline” value [2] of the same compound?
**A.** Near zero order for > 7 days

**Q.** With `C=CCN1CC[C@]23c4c5ccc(OC(=O)OCC6CCC(COC(=O)Oc7ccc8c9c7O[C@H]7C(=O)CC[C@@]%10(O)[C@@H](C8)N(CC=C)CC[C@]97%10)CC6)c4O[C@H]2C(=O)CC[C@@]3(O)[C@H]1C5` (stereo partly drawn) [Compound 5, bis((4R,4aS,7aR,12bS)-3-allyl-4a-hydroxy-7-oxo-2,3,4,4a,5,6,7,7a-octahydro-1H-4,12-methanobenzofuro[3,2-e]isoquinolin-9-yl) (cyclohexane-1,4-diylbis(methylene)) bis(carbonate)] as the compound, how does the “Release in phosphate buffered saline” value [2] read?
**A.** Near zero order for > 7 days

**Q.** Which “Pellet formation?” value [1] does the source give for `O=C(CCCCCCCCC(=O)Oc1ccc2c3c1O[C@H]1C(=O)CC[C@@]4(O)[C@@H](C2)N(CC2CC2)CC[C@]314)Oc1ccc2c3c1O[C@H]1C(=O)CC[C@@]4(O)[C@@H](C2)N(CC2CC2)CC[C@]314` [Compound 6, bis((4R,4aS,7aR,12bS)-3-(cyclopropylmethyl)-4a-hydroxy-7-oxo-2,3,4,4a,5,6,7,7a-octahydro-1H-4,12-methanobenzofuro[3,2-e]isoquinolin-9-yl) decanedioate] here?
**A.** ✓ (FIG. 7B)

**Q.** And the “Release in phosphate buffered saline” value [2]?
**A.** Near zero order for > 7 days

**Q.** Which “Release in phosphate buffered saline” value [2] does the source give for `O=C(Oc1ccc2c3c1O[C@H]1C(=O)CC[C@@]4(O)[C@@H](C2)N(CC2CC2)CC[C@]314)C1CCC(C(=O)Oc2ccc3c4c2O[C@H]2C(=O)CC[C@@]5(O)[C@@H](C3)N(CC3CC3)CC[C@]425)CC1` (stereo partly drawn) [Compound 7, bis((4R,4aS,7aR,12bS)-3-(cyclopropylmethyl)-4a-hydroxy-7-oxo-2,3,4,4a,5,6,7,7a-octahydro-1H-4,12-methanobenzofuro[3,2-e]isoquinolin-9-yl) cyclohexane-1,4-dicarboxylate] here?
**A.** Near zero order for > 7 days

**Q.** With `O=C(Oc1ccc2c3c1O[C@H]1C(=O)CC[C@@]4(O)[C@@H](C2)N(CC2CC2)CC[C@]314)c1ccc(C(=O)Oc2ccc3c4c2O[C@H]2C(=O)CC[C@@]5(O)[C@@H](C3)N(CC3CC3)CC[C@]425)cc1` [Compound 8, bis((4R,4aS,7aR,12bS)-3-(cyclopropylmethyl)-4a-hydroxy-7-oxo-2,3,4,4a,5,6,7,7a-octahydro-1H-4,12-methanobenzofuro[3,2-e]isoquinolin-9-yl) terephthalate] as the compound, how does the “Pellet formation by heat molding” value [1] read?
**A.** did not form a heat processed pellet

**Q.** Which results are given for `O=C(CCCCCCCCCCCCC(=O)Oc1ccc2c3c1O[C@H]1C(=O)CC[C@@]4(O)[C@@H](C2)N(CC2CC2)CC[C@]314)Oc1ccc2c3c1O[C@H]1C(=O)CC[C@@]4(O)[C@@H](C2)N(CC2CC2)CC[C@]314` [Compound 9, bis((4R,4aS,7aR,12bS)-3-(cyclopropylmethyl)-4a-hydroxy-7-oxo-2,3,4,4a,5,6,7,7a-octahydro-1H-4,12-methanobenzofuro[3,2-e]isoquinolin-9-yl) tetradecanedioate]?
**A.** Pellet formation? [1]: ✓ (FIG. 10B); Release in phosphate buffered saline (PBS): near zero order for [2]: Near zero order for > 7 days

**Q.** Which “Pellet formation?” value [1] does the source give for `CCC(C)(CC(=O)Oc1ccc2c3c1O[C@H]1C(=O)CC[C@@]4(O)[C@@H](C2)N(CC2CC2)CC[C@]314)CC(=O)Oc1ccc2c3c1O[C@H]1C(=O)CC[C@@]4(O)[C@@H](C2)N(CC2CC2)CC[C@]314` [Compound 10, bis((4R,4aS,7aR,12bS)-3-(cyclopropylmethyl)-4a-hydroxy-7-oxo-2,3,4,4a,5,6,7,7a-octohydro-1H-4,12-methanobenzofuro[3,2-e]isoquinolin-9-yl) 3-ethyl-3-methylpentonedioate] here?
**A.** ✓ (FIG. 11B)

**Q.** And the “Release in phosphate buffered saline” value [2]?
**A.** Near zero order for > 7 days

**Q.** Which results are given for `O=C(OCCCCCCOC(=O)Oc1ccc2c3c1O[C@H]1C(=O)CC[C@@]4(O)[C@@H](C2)N(CC2CC2)CC[C@]314)Oc1ccc2c3c1O[C@H]1C(=O)CC[C@@]4(O)[C@@H](C2)N(CC2CC2)CC[C@]314` [Compound 11, bis((4R,4aS,7aR,12bS)-3-(cyclopropylmethyl)-4a-hydroxy-7-oxo-2,3,4,4a,5,6,7,7a-octohydro-1H-4,12-methanobenzofuro[3,2-e]isoquinolin-9-yl) hexane-1,6-diyl bis(carbonate)]?
**A.** Pellet formation? [1]: ✓ (FIG. 12B); Release in phosphate buffered saline (PBS): near zero order for [2]: Near zero order for > 7 days

**Q.** With `O=C(OCC1CCC(COC(=O)Oc2ccc3c4c2O[C@H]2C(=O)CC[C@@]5(O)[C@@H](C3)N(CC3CC3)CC[C@]425)CC1)Oc1ccc2c3c1O[C@H]1C(=O)CC[C@@]4(O)[C@@H](C2)N(CC2CC2)CC[C@]314` (stereo partly drawn) [Compound 12, cyclohexane-1,4-diylbis(methylene) bis((4R,4aS,7aR,12bS)-3-(cyclopropylmethyl)-4a-hydroxy-7-oxo-2,3,4,4a,5,6,7,7a-octohydro-1H-4,12-methanobenzofuro[3,2-e]isoquinolin-9-yl) bis(carbonate)] as the compound, how does the “Release in phosphate buffered saline” value [2] read?
**A.** Near zero order for > 7 days

**Q.** Which “Pellet formation by heat molding” value [1] does the source give for `COc1ccc2cc([C@H](C)C(=O)OCC3CCC(COC(=O)[C@@H](C)c4ccc5cc(OC)ccc5c4)CC3)ccc2c1` (stereo partly drawn) [Compound 16, cyclohexane-1,4-diylbis(methylene) (2S,2S)-bis(2-(6-methoxynaphthalen-2-yl)proponoote)] here?
**A.** deformed during the process of removal from the mold

**Q.** For `CCN[C@H]1C[C@H](C)S(=O)(=O)c2sc(S(=O)(=O)NC(=O)OCCCCCCCCOC(=O)NS(=O)(=O)c3cc4c(s3)S(=O)(=O)[C@@H](C)C[C@@H]4NCC)cc21` [Compound 22, 8-(((((4S,6S)-4-(ethylamino)-6-methyl-7,7-dioxido-5,6-dihydro-4H-thieno[2,3-b]thiopyron-2-yl)sulfonyl)carbamoyl)oxy)octyl (((4S,6S)-4-(ethylamino)-6-methyl-7,7-dioxido-5,6-dihydro-4H-thieno[2,3-b]thiopyron-2-yl)sulfonyl)carbomate], which “Pellet formation by heat molding” value [1] is on record?
**A.** Neither compound formed a viscous liquid that could be pressed into a pellet

— patent US12509469B2, “Compositions and methods for the treatment of pain and dependence disorders” (Ripple Therapeutics Corporation, priority 2019, dated 2025)
